According to ChEMBL document CHEMBL1201862, “PubChem BioAssay data set” (2004):
Activity calls are given as the source filed them.

What was measured:
[1] = target: T1, 14-3-3 protein gamma (Homo sapiens, UniProt P61981); experiment: modulators of 14-3-3 gamma client binding – dose response (AID 711); format: functional
T1 sequence (P61981 whole entry): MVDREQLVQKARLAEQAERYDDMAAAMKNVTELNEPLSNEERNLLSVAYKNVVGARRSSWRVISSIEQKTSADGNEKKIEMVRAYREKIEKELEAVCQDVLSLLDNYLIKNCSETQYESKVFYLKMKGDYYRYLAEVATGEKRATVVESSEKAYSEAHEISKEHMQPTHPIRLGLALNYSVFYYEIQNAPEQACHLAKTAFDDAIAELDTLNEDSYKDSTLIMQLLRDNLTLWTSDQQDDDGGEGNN

[2] = M. tuberculosis H37Rv growth inhibitors, H37Rv strain (AID 1626); format: functional
[3] = target: Beta-galactosidase (Escherichia coli, UniProt Q8VNN2); experiment: beta-galactosidase enzyme inhibitors and activators, dose response, artefact control for CCR6 antagonist project, biochemical, E. coli enzyme, set 3 (AID 504712); format: functional
[4] = target: Heat shock protein HSP 90-alpha (Homo sapiens, UniProt P07900); format: functional, organism-based
[5] = target: Peroxisome proliferator-activated receptor gamma/Nuclear receptor corepressor 2 (Homo sapiens, UniProt P37231+Q9Y618); format: functional
[6] = target: Photoreceptor-specific nuclear receptor (Homo sapiens, UniProt Q9Y5X4); format: functional;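 also: potency for compounds that break the NR2E3 corepressor complex and count as activators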
[7] = target: Polyadenylate-binding protein 1 (Homo sapiens, UniProt P11940); experiment: PABP poly(A) RNA binding inhibitors, primary screen, biochemical, fluorescence polarization, uHTS (AID 2014)
[8] = target: Eukaryotic translation initiation factor 4H (Homo sapiens, UniProt Q15056); experiment: human eIF4H binding inhibitors, primary screen, translation initiation inhibitor project, biochemical, uHTS, fluorescence polarization (AID 2012)
[9] = target: Prothrombin (Homo sapiens, UniProt P00734); experiment: Thrombin 1536 HTS Dose Response Confirmation. [Related pubchem assays: 1046 (Thrombin 1536 HTS; hits were confirmed in this assay)]; format: functional
[10] = target: Induced myeloid leukemia cell differentiation protein Mcl-1 (Homo sapiens, UniProt Q07820); format: functional
[11] = A cytotoxicity screen of small molecule inhibitors of the PhoP region in Salmonella typhi identified in the primary screen. [Related pubchem assays: 1850, 1864, 1985 ]; format: functional
[12] = target: T2, Bcl-2-like protein 10 (Homo sapiens, UniProt Q9HD36); experiment: displacers of TR3 peptide from Bcl-B, primary screen, selectivity assay for Bfl-1 inhibitor project, biochemical, fluorescence polarization, FITC-TR3 peptide (AID 748);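 also: fluorescence polarization from a fluorescein-labelled TR3 peptide binding purified Bcl-B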
T2 sequence (Q9HD36 whole entry): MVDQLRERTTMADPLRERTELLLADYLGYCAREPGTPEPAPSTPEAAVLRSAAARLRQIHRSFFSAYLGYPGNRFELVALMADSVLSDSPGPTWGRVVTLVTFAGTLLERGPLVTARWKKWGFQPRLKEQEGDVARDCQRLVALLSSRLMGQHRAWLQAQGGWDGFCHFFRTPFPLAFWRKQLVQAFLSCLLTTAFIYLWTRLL

[13] = target: T3, Estrogen receptor (Homo sapiens, UniProt P03372);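 also: potency for inhibiting coactivator peptide recruitment to the receptor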
T3 sequence (P03372 whole entry): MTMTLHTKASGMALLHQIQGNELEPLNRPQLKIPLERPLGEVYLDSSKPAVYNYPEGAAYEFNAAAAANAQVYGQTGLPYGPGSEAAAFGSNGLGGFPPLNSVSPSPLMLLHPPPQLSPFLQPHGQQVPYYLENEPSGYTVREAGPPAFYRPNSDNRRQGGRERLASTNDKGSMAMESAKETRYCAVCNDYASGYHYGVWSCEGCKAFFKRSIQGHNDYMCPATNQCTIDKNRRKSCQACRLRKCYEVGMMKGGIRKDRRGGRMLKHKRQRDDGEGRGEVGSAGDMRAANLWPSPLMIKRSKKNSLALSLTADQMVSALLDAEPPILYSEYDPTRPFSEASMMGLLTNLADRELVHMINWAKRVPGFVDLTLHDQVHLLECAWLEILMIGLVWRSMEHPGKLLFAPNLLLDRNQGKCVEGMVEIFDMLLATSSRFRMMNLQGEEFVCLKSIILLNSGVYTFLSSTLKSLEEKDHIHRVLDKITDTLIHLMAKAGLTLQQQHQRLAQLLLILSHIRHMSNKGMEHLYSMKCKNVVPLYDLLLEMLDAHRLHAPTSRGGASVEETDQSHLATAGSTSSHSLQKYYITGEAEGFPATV

[14] = target: T4, Phosphomannomutase 2 (Homo sapiens, UniProt O15305); experiment: Counter screen SAR assay for PMM2 inhibitors via a fluorescence intensity assay. [Related pubchem assays (depositor defined):AID1545, AID1574]
T4 sequence (O15305 whole entry): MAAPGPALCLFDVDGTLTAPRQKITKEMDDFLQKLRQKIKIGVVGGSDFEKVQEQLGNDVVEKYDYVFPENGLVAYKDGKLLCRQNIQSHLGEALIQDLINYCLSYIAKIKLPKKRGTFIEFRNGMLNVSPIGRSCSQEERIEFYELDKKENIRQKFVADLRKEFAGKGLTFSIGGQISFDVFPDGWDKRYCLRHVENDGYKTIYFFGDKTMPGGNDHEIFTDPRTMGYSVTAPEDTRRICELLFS

[15] = target: T5, Mannose-6-phosphate isomerase (Homo sapiens, UniProt P34949); experiment: inhibitors of human PMI, primary screen, biochemical, fluorescence intensity, coupled assay (AID 1209)
T5 sequence (P34949 whole entry): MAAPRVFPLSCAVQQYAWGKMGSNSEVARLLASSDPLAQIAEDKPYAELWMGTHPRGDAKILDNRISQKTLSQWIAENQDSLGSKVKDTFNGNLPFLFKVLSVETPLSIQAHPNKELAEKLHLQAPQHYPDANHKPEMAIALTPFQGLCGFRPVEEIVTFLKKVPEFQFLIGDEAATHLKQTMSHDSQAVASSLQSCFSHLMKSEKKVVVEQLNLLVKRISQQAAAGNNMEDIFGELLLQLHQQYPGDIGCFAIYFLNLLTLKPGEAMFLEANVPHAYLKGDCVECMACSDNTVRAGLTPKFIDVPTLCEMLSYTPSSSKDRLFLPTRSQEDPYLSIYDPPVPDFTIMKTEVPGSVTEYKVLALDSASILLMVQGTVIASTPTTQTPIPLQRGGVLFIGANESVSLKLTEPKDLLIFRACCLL

[16] = target: Peroxisome proliferator-activated receptor gamma/Nuclear receptor coactivator 2 (Homo sapiens, UniProt P37231); experiment: (§1) TR-FRET dose response biochemical High Throughput Screening assay for agonists of the steroid receptor coactivator 2 (SRC-2) recruitment by the peroxisome proliferator-activated receptor gamma (PPAR gamma): non-selective agonists. [Related pubchem assays: 1297, 1032 ]; format: functional
[17] = target: Peroxisome proliferator-activated receptor gamma/Nuclear receptor coactivator 1 (Homo sapiens, UniProt P37231); experiment: as §1, with “1 (SRC-1)” for “2 (SRC-2)”, “assays (depositor defined):AID1300, AID1808, AID504735, AID631]” for “assays: 1297, 1032 ]”; format: protein assay
[18] = target: Peroxisome proliferator-activated receptor gamma/Nuclear receptor coactivator 3 (Homo sapiens, UniProt P37231); experiment: as §1, with “3 (SRC-3)” for “2 (SRC-2)”, “1301 (Confirmation screen.), 1048 (Primary screen.)]” for “1297, 1032 ]”; format: functional
[19] = microbe, parasite or virus in culture; format: functional; details: Mycobacterium tuberculosis
[20] = cells; format: functional
[21] = THP-1 cell cytotoxicity, dose response, cytotoxicity control for non-replicating M. tuberculosis project (AID 489025); format: functional
[22] = Vero E6 cell cytotoxicity, dose response, cytotoxicity control for non-replicating M. tuberculosis project, secondary assay (AID 492998); format: functional, VeroE6; details: Vero C1008
[23] = Luminescence Cell-Based Dose Response HTS to Identify Activators of Luciferase Translation or Activity in H4 […] Cells. [Related pubchem assays: 1829 (Project Summary), 1814 (Primary HTS)]; format: functional
[24] = Luminescence Cell-Based Dose Confirmation HTS to Identify Activators of 5'UTR Stem-Loop Driven Alpha-Synuclein mRNA Translation in H4 Neuroglioblastoma Cells. [Related pubchem assays: 1829 (Project Summary), 1814 (Primary HTS)]; format: functional
[25] = system: H4; experiment: Luminescence Cell-Based Dose Response HTS to Identify Activators of 5'UTR Stem-Loop Driven Prion Protein mRNA Translation in H4 Neuroglioblastoma Cells. [Related pubchem assays: 1829 (Project Summary), 1814 (Primary HTS)]; format: functional; details: Homo sapiens

Sequence of Peroxisome proliferator-activated receptor gamma/Nuclear receptor corepressor 2 (P37231 whole entry): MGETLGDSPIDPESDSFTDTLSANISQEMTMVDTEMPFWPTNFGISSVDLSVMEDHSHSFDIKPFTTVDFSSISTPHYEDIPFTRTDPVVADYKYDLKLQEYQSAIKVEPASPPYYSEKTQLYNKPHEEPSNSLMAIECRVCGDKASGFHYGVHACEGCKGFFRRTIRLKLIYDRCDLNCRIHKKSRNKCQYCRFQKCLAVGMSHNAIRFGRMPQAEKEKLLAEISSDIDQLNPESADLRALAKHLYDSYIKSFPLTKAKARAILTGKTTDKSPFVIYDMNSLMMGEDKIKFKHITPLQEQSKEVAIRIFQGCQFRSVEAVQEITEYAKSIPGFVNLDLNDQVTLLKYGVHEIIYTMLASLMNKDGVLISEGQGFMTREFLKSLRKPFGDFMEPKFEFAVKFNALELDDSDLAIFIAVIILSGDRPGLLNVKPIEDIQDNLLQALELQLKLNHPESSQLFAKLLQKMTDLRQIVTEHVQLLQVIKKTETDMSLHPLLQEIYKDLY
Sequence of Peroxisome proliferator-activated receptor gamma/Nuclear receptor corepressor 2 (Q9Y618 whole entry): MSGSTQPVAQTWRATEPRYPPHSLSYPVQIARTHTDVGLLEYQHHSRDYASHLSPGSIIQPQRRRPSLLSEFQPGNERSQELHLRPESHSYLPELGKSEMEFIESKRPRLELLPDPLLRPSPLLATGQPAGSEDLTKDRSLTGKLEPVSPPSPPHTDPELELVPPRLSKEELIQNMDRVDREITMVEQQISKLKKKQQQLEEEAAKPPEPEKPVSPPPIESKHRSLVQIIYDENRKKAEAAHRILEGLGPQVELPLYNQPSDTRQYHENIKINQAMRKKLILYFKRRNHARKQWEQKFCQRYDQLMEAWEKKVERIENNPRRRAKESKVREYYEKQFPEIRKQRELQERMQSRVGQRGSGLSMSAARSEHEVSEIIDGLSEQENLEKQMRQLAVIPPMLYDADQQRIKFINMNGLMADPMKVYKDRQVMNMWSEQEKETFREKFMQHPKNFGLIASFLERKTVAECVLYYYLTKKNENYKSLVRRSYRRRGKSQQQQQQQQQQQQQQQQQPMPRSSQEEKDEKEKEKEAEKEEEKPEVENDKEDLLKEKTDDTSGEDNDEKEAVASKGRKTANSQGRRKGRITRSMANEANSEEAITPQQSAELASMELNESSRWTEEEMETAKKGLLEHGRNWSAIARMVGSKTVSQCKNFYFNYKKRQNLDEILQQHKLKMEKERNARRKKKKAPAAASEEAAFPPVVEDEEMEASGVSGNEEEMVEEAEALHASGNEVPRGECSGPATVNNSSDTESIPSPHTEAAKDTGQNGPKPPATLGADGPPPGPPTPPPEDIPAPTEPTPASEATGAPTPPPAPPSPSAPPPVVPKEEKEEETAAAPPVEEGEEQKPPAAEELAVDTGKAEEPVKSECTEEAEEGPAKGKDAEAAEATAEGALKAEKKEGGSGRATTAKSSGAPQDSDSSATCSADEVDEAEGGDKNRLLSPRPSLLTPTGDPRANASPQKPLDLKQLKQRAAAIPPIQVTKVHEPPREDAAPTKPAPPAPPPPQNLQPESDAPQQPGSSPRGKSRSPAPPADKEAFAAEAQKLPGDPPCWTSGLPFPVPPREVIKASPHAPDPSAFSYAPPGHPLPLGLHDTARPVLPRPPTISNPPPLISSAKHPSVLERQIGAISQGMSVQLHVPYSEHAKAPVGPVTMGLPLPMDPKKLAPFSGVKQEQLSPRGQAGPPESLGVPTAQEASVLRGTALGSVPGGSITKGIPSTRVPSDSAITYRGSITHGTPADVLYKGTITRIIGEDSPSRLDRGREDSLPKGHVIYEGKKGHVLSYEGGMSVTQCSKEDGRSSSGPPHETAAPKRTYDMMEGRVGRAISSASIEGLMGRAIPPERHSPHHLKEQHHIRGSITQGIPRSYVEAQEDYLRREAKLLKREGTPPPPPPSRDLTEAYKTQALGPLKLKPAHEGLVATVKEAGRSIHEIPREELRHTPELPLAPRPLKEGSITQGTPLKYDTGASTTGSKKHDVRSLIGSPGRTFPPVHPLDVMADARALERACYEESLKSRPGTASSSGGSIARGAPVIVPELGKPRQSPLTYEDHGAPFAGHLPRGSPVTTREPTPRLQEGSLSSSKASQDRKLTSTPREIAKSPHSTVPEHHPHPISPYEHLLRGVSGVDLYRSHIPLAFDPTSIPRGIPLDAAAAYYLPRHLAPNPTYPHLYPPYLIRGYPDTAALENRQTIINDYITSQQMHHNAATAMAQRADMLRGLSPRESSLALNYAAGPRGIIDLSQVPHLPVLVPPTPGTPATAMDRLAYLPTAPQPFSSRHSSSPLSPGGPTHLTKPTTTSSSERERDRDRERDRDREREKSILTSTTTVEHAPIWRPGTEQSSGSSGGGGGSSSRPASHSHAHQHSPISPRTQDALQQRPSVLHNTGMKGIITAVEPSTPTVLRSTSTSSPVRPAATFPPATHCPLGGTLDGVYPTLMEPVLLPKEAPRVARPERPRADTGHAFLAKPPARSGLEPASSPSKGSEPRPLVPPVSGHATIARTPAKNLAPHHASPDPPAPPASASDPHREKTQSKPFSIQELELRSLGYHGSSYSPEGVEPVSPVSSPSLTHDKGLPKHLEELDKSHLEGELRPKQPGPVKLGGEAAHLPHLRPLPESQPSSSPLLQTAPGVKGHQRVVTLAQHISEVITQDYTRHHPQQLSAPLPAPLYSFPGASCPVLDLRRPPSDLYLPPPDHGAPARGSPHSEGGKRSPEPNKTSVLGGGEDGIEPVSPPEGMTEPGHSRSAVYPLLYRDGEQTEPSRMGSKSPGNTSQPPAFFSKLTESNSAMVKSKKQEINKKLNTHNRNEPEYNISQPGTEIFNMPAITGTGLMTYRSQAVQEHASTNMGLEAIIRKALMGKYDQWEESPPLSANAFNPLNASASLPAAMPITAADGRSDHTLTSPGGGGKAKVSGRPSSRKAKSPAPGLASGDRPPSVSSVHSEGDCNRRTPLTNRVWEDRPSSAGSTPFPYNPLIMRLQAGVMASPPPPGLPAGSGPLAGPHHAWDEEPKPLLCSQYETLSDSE
Sequence of Photoreceptor-specific nuclear receptor (Q9Y5X4 whole entry): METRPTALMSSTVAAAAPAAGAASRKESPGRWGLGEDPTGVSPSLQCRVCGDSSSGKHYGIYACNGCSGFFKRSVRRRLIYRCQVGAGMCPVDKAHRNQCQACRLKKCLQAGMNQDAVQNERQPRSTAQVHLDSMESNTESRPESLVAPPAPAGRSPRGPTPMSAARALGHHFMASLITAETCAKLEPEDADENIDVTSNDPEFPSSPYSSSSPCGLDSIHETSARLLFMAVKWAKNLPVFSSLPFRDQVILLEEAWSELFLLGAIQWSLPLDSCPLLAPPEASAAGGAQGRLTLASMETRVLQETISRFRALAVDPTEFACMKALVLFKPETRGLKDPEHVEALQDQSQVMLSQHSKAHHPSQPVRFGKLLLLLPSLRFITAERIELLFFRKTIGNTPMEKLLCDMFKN
Sequence of Polyadenylate-binding protein 1 (P11940 whole entry): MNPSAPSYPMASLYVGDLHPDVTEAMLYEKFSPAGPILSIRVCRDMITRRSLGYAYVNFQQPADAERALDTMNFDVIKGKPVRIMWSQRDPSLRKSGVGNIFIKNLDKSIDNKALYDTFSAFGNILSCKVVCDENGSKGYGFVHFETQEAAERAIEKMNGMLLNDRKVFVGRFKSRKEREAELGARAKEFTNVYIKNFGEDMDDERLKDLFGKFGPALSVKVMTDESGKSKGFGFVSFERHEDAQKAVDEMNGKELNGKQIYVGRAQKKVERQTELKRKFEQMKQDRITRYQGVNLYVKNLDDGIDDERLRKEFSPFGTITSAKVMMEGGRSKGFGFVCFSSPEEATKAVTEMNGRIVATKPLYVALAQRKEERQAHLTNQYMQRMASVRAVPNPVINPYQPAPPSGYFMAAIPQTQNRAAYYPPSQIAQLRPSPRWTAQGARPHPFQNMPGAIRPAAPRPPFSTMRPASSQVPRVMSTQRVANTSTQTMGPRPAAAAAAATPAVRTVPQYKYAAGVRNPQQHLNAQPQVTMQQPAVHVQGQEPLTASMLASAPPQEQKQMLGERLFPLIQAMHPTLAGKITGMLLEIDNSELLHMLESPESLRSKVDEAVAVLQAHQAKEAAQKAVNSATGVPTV
Sequence of Induced myeloid leukemia cell differentiation protein Mcl-1 (Q07820 whole entry): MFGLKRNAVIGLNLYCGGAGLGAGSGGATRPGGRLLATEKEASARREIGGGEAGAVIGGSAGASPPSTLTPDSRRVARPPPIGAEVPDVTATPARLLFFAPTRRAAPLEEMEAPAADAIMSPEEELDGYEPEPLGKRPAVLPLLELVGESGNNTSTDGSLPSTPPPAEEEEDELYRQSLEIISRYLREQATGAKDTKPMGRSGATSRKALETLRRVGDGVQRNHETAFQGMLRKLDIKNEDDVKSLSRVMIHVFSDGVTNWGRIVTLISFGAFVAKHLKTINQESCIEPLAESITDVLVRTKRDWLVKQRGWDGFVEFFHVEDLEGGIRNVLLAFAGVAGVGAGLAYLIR

## CCOc1ccc(-n2cc(C(=O)N3CCN(C)CC3)c3cc(OC)c(OC)cc3c2=O)cc1
[1]
  IC50: > 50 µM (not active)

## COc1ccc(NC(=O)CSC2=NCCN2)cc1
[2]
  IC50: > 100 µM (active)

## Cc1ccc(C(=O)NCC(C)(C)O)cc1
[1]
  IC50: > 50 µM (not active)

## Cc1cc(C)cc(N2C(=O)C=CC2=O)c1
[3]
  IC50: > 66.6 µM (inactive)
[4]
  AC50: 0.499 µM (active)

## Cc1ccc(-n2c(=S)[nH]c3c(oc4ccccc43)c2=O)cc1C
[5]
  IC50: 7.61 µM (active)
[6]
  IC50: 4.11 µM (active)

## O=C(NCc1ccco1)C1c2ccccc2Oc2ccccc21
[7]
  IC50: 71.3 µM (active)
[8]
  IC50: 15.7 µM (active)

## COc1ccc(C(=O)NNC(=O)C(Cc2ccc(O)cc2)NC(=O)c2ccccc2NC(=O)c2ccc(OC)cc2)cc1 (stereo not drawn)
[5]
  IC50: > 39.8 µM (not active)
[6]
  IC50: > 39.8 µM (not active)

## CCOc1cc(C2NC(=O)NC(O)(C(F)(F)F)C2C(=O)c2ccc(Cl)cc2)ccc1O (stereo not drawn)
[9]
  IC50: > 50 µM (not active)

## COC(=O)Cn1cc(C(=O)c2cccs2)c2ccccc21
[9]
  IC50: > 50 µM (inconclusive)

## COc1ccc(NC(=O)CCc2nc(-c3ccccc3F)no2)cc1
[2]
  IC50: > 100 µM (active)

## Cc1cc(NS(=O)(=O)c2ccc(Nc3nc(-c4sc(NC(=O)c5ccccc5)nc4C)cs3)cc2)no1
[10]
  IC50: 2.46 µM (active)
[11]
  EC50: > 50 µM (active)

## COc1cccc2cc(-c3cc(=O)oc4ccc(O)cc34)oc12
[7]
  IC50: > 100 µM (inactive)
[8]
  IC50: 43.1 µM (active)

## CC(=O)n1nc(-c2ccc(C)cc2)nc1NCc1ccco1
[9]
  IC50: 1.82 µM (active)

## Cc1cccc2cc(C(c3nnnn3C(C)(C)C)N(Cc3ccco3)CC3CCCO3)c(=O)[nH]c12 (stereo not drawn)
[12]
  IC50: > 100 µM (inactive)
[13]
  IC50: 13.3 µM (active)

## Cc1cc(C)c(NC(=O)CN(c2ccccc2)S(=O)(=O)N(C)C)c(C)c1
[12]
  IC50: 69.2 µM (inactive)

## Cc1ccc(C)c(-n2[nH]c3ccccc3c2=O)c1
[14]
  IC50: > 100 µM (inactive)

## Cn1c(=O)[nH]c(=O)c2c1nc(Br)n2C/C=N/Nc1ccccc1
[15]
  IC50: > 50 µM (not active)

## CN(C)CCCN1C(=O)C(O)=C(C(=O)c2cc3ccccc3o2)C1c1ccccc1 (stereo not drawn)
[16]
  EC50: 4.26 µM (active)
[17]
  EC50: 6.07 µM (active)
[5]
  IC50: 5.04 µM (active)
[6]
  IC50: > 39.8 µM (not active)
[18]
  EC50: > 79.4 µM (not active)

## Cc1cc(CC(C)C)n(-c2nc3ccccc3c(=O)n2OCC(N)=O)n1
[19]
  CC50: > 40 µM (active)
[20]
  IC50: 8.85 µM (active)
[21]
  CC50: > 40 µM (active)
[22]
  CC50: > 20 µM (active)

## C(=N/Nc1nccs1)/c1cccnc1
[11]
  EC50: > 50 µM (active)

## Nc1ccccc1Nc1cc(-c2ccccc2)[nH]n1
[23]
  EC50: 19.8 µM (active)
[24]
  EC50: 14.1 µM (active)
[25]
  EC50: 12.1 µM (active)
[2]
  IC50: > 100 µM (active)
